Assay results published in patent US12091426B2, “Bifunctional degraders of hematopoietic progenitor kinase and therapeutic uses thereof” (Nurix Therapeutics, Inc., priority 2021, dated 2024).

Target: T1, HPK1 (Homo sapiens, UniProt Q92918)
T1 construct: A HiBiT tag was introduced by CRISPR on the N terminus of HPK1 in Jurkat cells; host or cells: Jurkat cells (ATCC TIB-152), monoclonal line with CRISPR knock-in of HiBiT at the endogenous HPK1 locus
Assay: HPK1 Cellular HiBit Degradation Assay
Type: cell-based
Details: HiBiT HPK1 Jurkat cells, 24 hrs; for DC50: concentration at which 50% of HPK1 was remaining, read-out: DC50 Category; for Dmax: Jurkat, read-out: Dmax Category
How it was run: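 HiBiT-HPK1 Jurkat (CRISPR, N-term tag), 3×10^4 cells/well, RPMI 1640 + 10% FBS; CTMs 10 uM–0.1 nM, 11 pts; 24 hrs, 37° C/5% CO2; lytic HiBiT luminescence; % remaining vs DMSO, parental background subtracted; 4-parameter fit → DC50, Dmax.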

[1] = maximum degradation vs DMSO vehicle control

T1 sequence (Q92918 whole entry): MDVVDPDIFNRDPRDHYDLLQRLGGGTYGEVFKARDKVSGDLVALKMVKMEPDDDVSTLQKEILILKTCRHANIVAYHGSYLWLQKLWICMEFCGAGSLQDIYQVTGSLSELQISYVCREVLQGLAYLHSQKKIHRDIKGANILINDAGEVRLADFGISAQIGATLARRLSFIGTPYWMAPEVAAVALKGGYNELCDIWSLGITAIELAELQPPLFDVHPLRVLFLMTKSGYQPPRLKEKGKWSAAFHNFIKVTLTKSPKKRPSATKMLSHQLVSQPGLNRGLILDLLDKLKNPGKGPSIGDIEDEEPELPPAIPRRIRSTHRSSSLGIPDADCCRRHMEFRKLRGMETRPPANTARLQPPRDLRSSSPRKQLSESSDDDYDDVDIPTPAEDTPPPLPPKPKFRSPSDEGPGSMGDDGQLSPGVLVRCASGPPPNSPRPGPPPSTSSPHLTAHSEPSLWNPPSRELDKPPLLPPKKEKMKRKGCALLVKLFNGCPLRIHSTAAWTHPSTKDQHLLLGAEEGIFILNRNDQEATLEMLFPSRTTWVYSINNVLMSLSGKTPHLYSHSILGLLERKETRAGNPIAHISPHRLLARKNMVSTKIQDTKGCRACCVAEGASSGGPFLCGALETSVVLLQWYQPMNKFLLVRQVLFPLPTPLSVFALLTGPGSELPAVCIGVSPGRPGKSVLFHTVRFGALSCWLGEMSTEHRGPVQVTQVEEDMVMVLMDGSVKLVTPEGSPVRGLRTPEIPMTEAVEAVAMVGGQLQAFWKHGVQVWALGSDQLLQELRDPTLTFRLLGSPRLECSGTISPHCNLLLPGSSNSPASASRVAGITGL

DC50 [µM]	Dmax [1] [%]	Dmax Category [1]	SMILES
< 0.1	70 to 85		CC(C)n1cnc2cc(-c3ccc4c(c3)N([C@H]3C[C@@H](N5CCCCC5)C3)C(=O)C43CCN(C(=O)[C@@H]4CCN(C(=O)C5CCN(c6ccc(C7CCC(=O)NC7=O)cn6)CC5)C4)CC3)nc(NC3CC3)c21 (mixture of isomers) [Example 23, (3RS)-3-(6-{4-[(3R)-3-({6-[4-(cyclopropylamino)-3-(propan-2-yl)-3H-imidazo[4,5-c]pyridin-6-yl]-2-oxo-1-[(1S,3S)-3-(piperidin-1-yl)cyclobutyl]-1,2-dihydrospiro[indole-3,4′-piperidin]-1′-yl}carbonyl)pyrrolidine-1-carbonyl]piperidin-1-yl}pyridin-3-yl)piperidine-2,6-dione]
< 0.1	50 to 70		CC(C)n1cnc2cc(-c3ccc4c(c3)N([C@H]3C[C@@H](N5CCCCC5)C3)C(=O)C43CCN(C(=O)[C@@H]4CCN(C(=O)[C@H]5CC[C@H](Nc6cccc7c6n(C)c(=O)n7C6CCC(=O)NC6=O)CC5)C4)CC3)nc(Nc3ccccc3F)c21 (mixture of isomers) [Example 144, (3RS)-3-(3-methyl-2-oxo-4-{[(1R,4R)-4-[(3R)-3-[(6-{4-[(2-fluorophenyl)amino]-3-(propan-2-yl)-3H-imidazo[4,5-c]pyridin-6-yl}-2-oxo-1-[(1S,3S)-3-(piperidin-1-yl)cyclobutyl]-1,2-dihydrospiro[indole-3,4′-piperidin]-1′-yl)carbonyl]pyrrolidine-1-carbonyl]cyclohexyl]amino}-2,3-dihydro-1H-1,3-benzodiazol-1-yl)piperidine-2,6-dione]
< 0.1	70 to 85		CC(C)n1cnc2cc(-c3ccc4c(c3)N([C@H]3C[C@@H](N5CCCCC5)C3)C(=O)C43CCN(C(=O)C4(C)CCN(C(=O)C5CCN(c6ccc(C7CCC(=O)NC7=O)cc6)CC5)CC4)CC3)nc(Nc3ccncc3F)c21 (mixture of isomers) [Example 112, (3RS)-3-[4-(4-{4-[(6-{4-[(3-fluoropyridin-4-yl)amino]-3-(propan-2-yl)-3H-imidazo[4,5-c]pyridin-6-yl}-2-oxo-1-[(1S,3S)-3-(piperidin-1-yl)cyclobutyl]-1,2-dihydrospiro[indole-3,4′-piperidin]-1′-yl)carbonyl]-4-methylpiperidine-1-carbonyl}piperidin-1-yl)phenyl]piperidine-2,6-dione]
0.1 to 0.5	70 to 85		CC(C)n1cnc2cc(-c3ccc4c(c3)N([C@H]3C[C@@H](N5CCCCC5)C3)C(=O)C43CCN(C(=O)C4CCC5(CCC5)N(C(=O)C5CCN(c6ccc(C7CCC(=O)NC7=O)cn6)CC5)C4)CC3)nc(NC3CC3)c21 (mixture of isomers) [Example 290, (3RS)-3-(6-{4-[7-({6-[4-(cyclopropylamino)-3-(propan-2-yl)-3H-imidazo[4,5-c]pyridin-6-yl]-2-oxo-1-[(1S,3S)-3-(piperidin-1-yl)cyclobutyl]-1,2-dihydrospiro[indole-3,4′-piperidin]-1′-yl}carbonyl)-5-azaspiro[3.5]nonane-5-carbonyl]piperidin-1-yl}pyridin-3-yl)piperidine-2,6-dione]
0.5 to 1	50 to 70		CC(C)n1cnc2cc(-c3ccc4c(c3)N([C@H]3C[C@@H](N5CCCCC5)C3)C(=O)C43CCN(C(=O)C4CCN(C(=O)[C@H]5CC[C@H](N(C)c6cccc7c6C(=O)N(C6CCC(=O)NC6=O)C7=O)CC5)CC4)CC3)nc(NC3CC3)c21 (mixture of isomers) [Example 133, 2-[(3RS)-2,6-dioxopiperidin-3-yl]-4-{methyl[(1R,4R)-4-[4-({6-[4-(cyclopropylamino)-3-(propan-2-yl)-3H-imidazo[4,5-c]pyridin-6-yl]-2-oxo-1-[(1S,3S)-3-(piperidin-1-yl)cyclobutyl]-1,2-dihydrospiro[indole-3,4′-piperidin]-1′-yl}carbonyl)piperidine-1-carbonyl]cyclohexyl]amino}-2,3-dihydro-1H-isoindole-1,3-dione]
0.5 to 1		B (B: >70%-<85%)	CC(C)n1cnc2cc(-c3ccc4c(c3)N([C@H]3C[C@@H](N5CCCCC5)C3)C(=O)C43CCN(C(=O)c4ccc(C(=O)NC5CCN(c6ccc7c(c6)C(=O)N(C6CCC(=O)NC6=O)C7=O)CC5)cc4)CC3)nc(NC3CC3)c21 (mixture of isomers) [Example 44]
< 0.1	> 85		CC(C)n1cnc2cc(-c3ccc4c(c3)N([C@H]3C[C@@H](N5CCCCC5)C3)C(=O)C43CCN(C(=O)[C@@H]4CCN(C(=O)C5CCN(c6ccc(C7CCC(=O)NC7=O)cn6)CC5)C4)CC3)nc(Nc3ccccc3F)c21 (stereo partly drawn) [Example 24, 3-(6-(4-((R)-3-(6-(4-((2-fluorophenyl)amino)-3-isopropyl-3H-imidazo[4,5-c]pyridin-6-yl)-2-oxo-1-((1s,3S)-3-(piperidin-1-yl)cyclobutyl)spiro[indoline-3,4′-piperidine]-1′-carbonyl)pyrrolidine-1-carbonyl)piperidin-1-yl)pyridin-3-yl)piperidine-2,6-dione]
0.5 to 1	50 to 70		CC(C)n1cnc2cc(-c3ccc4c(c3)N([C@H]3C[C@@H](N5CCCCC5)C3)C(=O)C43CCN(C(=O)C[C@@H]4CCN(C(=O)[C@H]5CC[C@@H](Nc6cccc7c6C(=O)N(C6CCC(=O)NC6=O)C7=O)CC5)C4)CC3)nc(NC3CC3)c21 (mixture of isomers) [Example 35, 2-[(3RS)-2,6-dioxopiperidin-3-yl]-4-{[(1R,4R)-4-[(3S)-3-(2-{6-[4-(cyclopropylamino)-3-(propan-2-yl)-3H-imidazo[4,5-c]pyridin-6-yl]-2-oxo-1-[(1S,3S)-3-(piperidin-1-yl)cyclobutyl]-1,2-dihydrospiro[indole-3,4′-piperidin]-1′-yl}-2-oxoethyl)pyrrolidine-1-carbonyl]cyclohexyl]amino}-2,3-dihydro-1H-isoindole-1,3-dione]
0.1 to 0.5	> 85		CC(C)n1cnc2cc(-c3ccc4c(c3)N([C@H]3C[C@@H](N5CCCCC5)C3)C(=O)C43CCN(C(=O)[C@@H]4CCN(C(=O)[C@H]5CC[C@H](Nc6cccc7c6C(=O)N(C6CCC(=O)NC6=O)C7=O)CC5)C4)CC3)nc(Nc3ccccc3F)c21 (mixture of isomers) [Example 9, 2-[(3RS)-2,6-dioxopiperidin-3-yl]-4-{[(1R,4R)-4-[(3R)-3-[(6-{4-[(2-fluorophenyl)amino]-3-(propan-2-yl)-3H-imidazo[4,5-c]pyridin-6-yl}-2-oxo-1-[(1S,3S)-3-(piperidin-1-yl)cyclobutyl]-1,2-dihydrospiro[indole-3,4′-piperidin]-1′-yl)carbonyl]pyrrolidine-1-carbonyl]cyclohexyl]amino}-2,3-dihydro-1H-isoindole-1,3-dione]
0.1 to 0.5	70 to 85		CC(C)n1cnc2cc(-c3ccc4c(c3)N([C@H]3C[C@@H](N5CCCCC5)C3)C(=O)C43CCN(C(=O)C4CCN(C(=O)C5CCN(c6ccc(C7CCC(=O)NC7=O)cn6)CC5)CC4)CC3)nc(NC3CC3)c21 (stereo partly drawn) [Example 73, 3-(6-(4-(4-(6-(4-(cyclopropylamino)-3-isopropyl-3H-imidazo[4,5-c]pyridin-6-yl)-2-oxo-1-((1S,3S)-3-(piperidin-1-yl)cyclobutyl)spiro[indoline-3,4′-piperidine]-1′-carbonyl)piperidine-1-carbonyl)piperidin-1-yl)pyridin-3-yl)piperidine-2,6-dione]
